According to ChEMBL document CHEMBL1128786, “Design, synthesis and evaluation of C/D-ring analogs of the fungal metabolite K-76 as potential complement inhibitors” (Bioorg Med Chem Lett, 1995):

Experiments:
[1] = The concentration of compound required to cause 50% hemolysis in the absence of complement; format: functional, Ovis aries
[2] = species: Homo sapiens; test: The concentration of compound required to inhibit complement induced hemolysis by 50%; format: functional

## CC1(C)Cc2c(Oc3ccccc3)cc(C=O)cc2O1
[1]
  EC50: > 1120 µM
[2]
  IC50: > 1120 µM

## CC1(C)Cc2c(Oc3ccccc3)cc(C(=O)O)cc2O1
[1]
  EC50: > 1060 µM
[2]
  IC50: > 1060 µM

## COc1cc(C(=O)O)cc2c1CC(C)(C)O2
[1]
  EC50: > 1350 µM
[2]
  IC50: > 1350 µM

## COc1cc(C=O)cc2c1CC(C)(C)O2
[1]
  EC50: > 1460 µM
[2]
  IC50: 1100 µM

## CC1(C)Cc2c(Oc3ccccc3)cc(-c3nn[nH]n3)cc2O1
[1]
  EC50: 650 µM
[2]
  IC50: 195 µM

## CC1(C)Cc2c(O)cc(C(=O)O)cc2O1
[1]
  EC50: > 1440 µM
[2]
  IC50: > 1440 µM

## CC1(C)Cc2c(O)cc(C=O)cc2O1
[1]
  EC50: > 1560 µM
[2]
  IC50: > 1560 µM

## C[C@@H]1CCC2C(C)(C)[C@H](O)[C@H](O)C[C@]2(C)[C@@]12Cc1c(O)cc(C(=O)O)c(C=O)c1O2 (some centres not stated)
[1]
  EC50: > 680 µM

## COc1cc(-c2nn[nH]n2)cc2c1CC(C)(C)O2
[1]
  EC50: > 1220 µM
[2]
  IC50: 245 µM
